Columns and labels:
[1] = system: homologous recombination in HCT116 IC60 CPTR cells; assay: HR assay; assay type: cell-based; settings: HR substrate transfected for 72 hours
Description: Concentrations of CPT used: 0.140 nM, 20 nM, 50 nM, 1000 nM. Concentration of 1-OHP: 0.14 μM, 2 μM, 4 μM, 6 μM, 8 μM. Concentrations of CDDP used: 0.140 μM, 2 μM, 5 μM, 10 μM. The percentage of viable cells were determined by MTT assays (FIG. 12A-12C). The data in FIG. 12A and FIG. 12C is from three independent experiments and the data in FIG. 12B is from nine independent experiments. […] The levels of MRP2, MRP3, MRP5, MXR were quantitated from three independent experiments. […] Specifically, HCT116 IC60 CPTR cells were transfected with the HR substrate for 72 hours and the levels of HR was determined (FIG. 6A). The data is from three independent experiments. […] The number of soft agar colonies in each condition were counted. The data is from three independent experiments.
For HR assay, 10 μg of the HR plasmid (Seluanov et al., 2010) was digested with I-SceI, purified and eluted into 20 μl of 10 mM TrisHCl pH 8.0. 5 μg of the linearized reporter cassette along with 100 ng of tdTomato-N1 plasmid were transfected in an exponentially growing 10 cm dish of cells using FuGENE® HD Transfection Reagent. After 3 days of transfection, the cells were harvested. The GFP positive and TdRed positive cells were analysed by FACS. SCE assays were carried out as described earlier (Chabosseau et al., 2011).

[2] = system: HCT116 IC60 1-OHPR tumors; assay: Xenograft model, oxaliplatin resistant cells; assay type: in vivo, NSG mice; settings: 1-OHP 2 mg/kg + compound 5 mg/kg, compared to 1-OHP alone
Description: Tumors from different groups were excised at the end of the experiments. […] For these experiments, RNA and protein was isolated from tumors obtained at the end point of the xenograft experiment. RNA and the protein levels of MRP2 were determined by RT-qPCR and western blotting with anti-MRP2 antibody. For each group three tumor samples were analyzed (FIG. 6F, 6G). […] The levels of the indicated MDR genes were quantitated from three tumor samples from each group. Mean±S.D. (FIG. 13A). […] The experiment was repeated three times and one representative experiment has been shown (FIG. 13B).
In all cases tumor volume were measured at the indicated days post-injection using the following formula: Tumor volume=½(length×width2).

HCT116 IC60 CPTR tumors = assay: Xenograft model, camptothecin resistant cells; settings: for tumor growth: CPT 1.25 mg/kg + compound 5 mg/kg intraperitoneally every 3 days, compared to CPT alone; for apoptosis in tumors, TUNEL positivity: dual treatment with CPT; for cell proliferation in tumors, Ki67 and PCNA levels: dual treatment with CPT/1-OHP
[3] = target: T1, BLM-RAD54 interaction (BLM F2 and N-RAD54 F1) (Homo sapiens, UniProt Q92698); assay: Renilla luciferase-based protein complementation assay (PCA); assay type: cell-based; settings: disruption of BLM F2 / N-RAD54 F1 interaction, HEK293T cells, 1 nM to 100 μM; read-out: EC50
T1 construct: expressed in transfected cells; host or cells: HEK293T
T1 sequence (Q92698 1-212): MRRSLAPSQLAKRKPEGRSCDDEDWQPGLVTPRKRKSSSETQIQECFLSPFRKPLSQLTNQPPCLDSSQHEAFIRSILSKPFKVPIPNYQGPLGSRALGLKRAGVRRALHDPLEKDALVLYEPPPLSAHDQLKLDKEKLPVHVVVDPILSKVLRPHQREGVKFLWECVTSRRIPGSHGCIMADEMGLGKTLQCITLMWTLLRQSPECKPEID
Description: Specifically, N-RAD54-F1, C-RAD54-F1, BLM-F1 and BLM-F2 were transfected in HEK293T. Forty-eight hours post-transfection, Renilla luciferase-based PCA were carried out with the indicated combination of the expressed proteins. The experiment was repeated three times. Mean±S.D.
Using the Renilla luciferase-based protein complementation assay described earlier, 1280 FDA/EMA approved small molecules present in Prestwick chemical library were screened for their ability to disrupt BLM-RAD54 interaction. Each of the small molecules was incubated with HEK293T cells expressing BLM-F2 and N-RAD54-F1. Compared to cells expressing only BLM-F2 and N-RAD54-F1, the decrease in Renilla luciferase intensity in presence of each small molecule was monitored. Percentage disruption of the interaction between BLM F2 and N-RAD54 F1 was plotted in form of heatmap. The disruption of the BLM-RAD54 interaction was determined by a decrease in the Renilla luciferase activity as compared to control untreated cells.
The percentage disruption of the interaction between BLM F2 and N-RAD54 F1 was plotted as a non-linear regression line. The data was from three independent experiments.
Renilla Luciferase (Rlu) based Protein complementation assay was carried out as described in (Stefan et al., 2007). For preliminary screening of the Prestwick Chemical Library (containing 1280 FDA/EMA approved small molecules), HEK293T cells were seeded in the 6-well plates a day prior to the transfection. Next day the cells were transfected by 2 μg each of pcDNA3.1 N-RAD54 F1, pcDNA3.1 C-RAD54 F1, pcDNA3.1 BLM F1, pcDNA3.1 BLM F2 plasmids (alone or in different combinations) using Lipofectamine 2000 (according to the manufacturer's protocol). 36 hours post-transfection, approximately […] cells were seeded in a 96-well plate and incubated at 37° C. for 2 hour with or without 10 μM of the 1280 small molecules present in the library. 10 μM of Coenleterazine h was added into each well and Rluc activity was monitored for the first 10 seconds in Varioskan Microplate Reader (Thermo Fisher Scientific). The validation screen was performed with 17 small molecules at 100 μM, 10 μM, 1 μM, 100 nM, 10 nM and 1 nM concentrations. The percentage reduction in the protein-protein interaction was then calculated as compared to the control wells (without any small molecule).

CN1CCN(C2=Nc3ccccc3Oc3ccc(Cl)cc32)CC1.O=C(O)CCC(=O)O [C17, Loxapine succinate]
levels of HR [1]: decreased the levels of the HR | tumor growth [2]: inhibited the tumor growth | tumor growth (HCT116 IC60 CPTR tumors): inhibited the tumor growth | RNA and protein levels of multiple MDR genes (including MRP2) in tumors (HCT116 IC60 CPTR tumors; co-treated with CPT 1.25 mg/kg and compound 5 mg/kg, end point): very significantly decreased | apoptosis in tumors, TUNEL positivity (HCT116 IC60 CPTR tumors): increased apoptosis | cell proliferation in tumors, Ki67 and PCNA levels (HCT116 IC60 CPTR tumors): Decreased cell proliferation | EC50 [3]: 22.9 ± 4.25 nM

OCCN(CCO)c1nc(N2CCCCC2)c2nc(N(CCO)CCO)nc(N3CCCCC3)c2n1 [C7, Dipyridamole]
levels of HR [1]: decreased the levels of the HR | tumor growth [2]: inhibited the tumor growth | tumor growth (HCT116 IC60 CPTR tumors): inhibited the tumor growth | apoptosis in tumors, TUNEL positivity (HCT116 IC60 CPTR tumors): increased apoptosis | cell proliferation in tumors, Ki67 and PCNA levels (HCT116 IC60 CPTR tumors): Decreased cell proliferation | EC50 [3]: 6.16 ± 0.297 nM

CC(=O)Nc1nnc(S(N)(=O)=O)s1 [C3, Acetazolamide]
levels of HR [1]: decreased the levels of the HR | tumor growth [2]: inhibited the tumor growth | tumor growth (HCT116 IC60 CPTR tumors): inhibited the tumor growth | apoptosis in tumors, TUNEL positivity (HCT116 IC60 CPTR tumors): increased apoptosis | cell proliferation in tumors, Ki67 and PCNA levels (HCT116 IC60 CPTR tumors): Decreased cell proliferation | EC50 [3]: 4.2 ± 0.198 nM

Source: patent publication US20240180881A1, “METHODS FOR DECREASING RESISTANCE TO CHEMOTHERAPY” (National Institute of Immunology, priority 2022, published 2024)
